From patent EP4603105A1, “PHARMACEUTICAL COMPOSITION CONTAINING CYCLIC COMPOUND HAVING SELECTIVE KRAS INHIBITORY EFFECT AGAINST HRAS AND NRAS” (CHUGAI SEIYAKU KABUSHIKI KAISHA, priority 2022, dated 2024)

Experiments:
[1] = target: GDP-bound KRAS wild-type protein (Homo sapiens, UniProt P01116); test: Binding to KRAS by surface plasmon resonance (SPR), dissociation constant KD; settings: Single Cycle Kinetics
In short: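 SPR, 30°C: Avi-biotin RAS·GDP captured via Biotin CAPture (~100–300 RU); running buffer HBS pH 7.4, 1 mM DTT, 10 mM MgCl2, 0.01% Tween 20, 10 µM GDP, 4% DMSO. Single-cycle kinetics, 100 µL/min, 75 s injections; 1:1 model → KD.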

[2] = target: GDP-bound NRAS wild-type protein (Homo sapiens, UniProt P01111); test: Binding to NRAS by surface plasmon resonance (SPR), KD and KD ratio to KRAS; settings: ratio of KD for GDP-bound NRAS wild-type protein to KD for KRAS
In short: (§1)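 GDP-loaded biotinylated Avi-tag RAS proteins (E. coli-expressed) captured on a Biotin CAPture chip at ~100–300 RU; single-cycle kinetics at 30°C, 100 µL/min, 75 s injections of rising compound concentrations. HBS pH 7.4 running buffer with 1 mM DTT, 10 mM MgCl2, 10 µM GDP, 4% DMSO. KD from 1:1 binding fit.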

HRAS wild-type protein = HRAS wild-type protein (Homo sapiens, UniProt P01112); test: Binding to HRAS by surface plasmon resonance (SPR), KD and KD ratio to KRAS; settings: ratio of KD for HRAS wild-type protein to KD for KRAS
In short: as §1

[3] = tested on: human lung cancer strain NCI-H441; type: cell-based
In short: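 Readout: […] after the ATP-based reagent. Compound: serial dilutions in dimethyl sulfoxide.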

[4] = tested on: human gastric cancer strain SNU-1; type: cell-based
In short: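 SNU-1 gastric cancer cells, 250 cells/well in RPMI-1640 with 10% FBS, glucose, HEPES and sodium pyruvate, plated onto serially diluted compound in DMSO.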

[5] = tested on: human pancreatic cancer strain KP4; type: cell-based
In short: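 KP4 pancreatic cancer cells seeded at 500 cells/well in DMEM/Ham's F-12 with 10% FBS onto serially diluted compound. Viability read by CellTiter-Glo luminescence.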

[6] = tested on: human colorectal cancer strain GP2d; type: cell-based
In short: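 Cells seeded at 500 cells/well in DMEM with 10% FBS onto serially diluted compound in DMSO, then cultured 7 days at 37°C, 5% CO2. Viability read by CellTiter-Glo luminescence.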

[7] = tested on: human gastric cancer strain GSU; type: cell-based
In short: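 Cells seeded at 200 per well in RPMI-1640 with 10% FBS onto serially diluted compound (DMSO) in U-bottom plates. Viability read by CellTiter-Glo luminescence.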

[8] = tested on: human ovarian cancer strain OV7; type: cell-based
In short: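 OV7 cells, 250 per well, in DMEM/Ham's F-12 with 5% FBS, 0.5 µg/mL hydrocortisone and 10 µg/mL insulin, grown 7 days at 37°C with serially diluted compound. Viability by CellTiter-Glo luminescence.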

[9] = tested on: human bladder cancer strain UM-UC-3; type: cell-based
In short: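 UM-UC-3 human bladder cancer cells were seeded at 250 cells/well onto serially diluted compound in MEM with 10% FBS. Viability was read as CellTiter-Glo luminescence.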

Chain of HRAS wild-type protein (P01112 whole entry): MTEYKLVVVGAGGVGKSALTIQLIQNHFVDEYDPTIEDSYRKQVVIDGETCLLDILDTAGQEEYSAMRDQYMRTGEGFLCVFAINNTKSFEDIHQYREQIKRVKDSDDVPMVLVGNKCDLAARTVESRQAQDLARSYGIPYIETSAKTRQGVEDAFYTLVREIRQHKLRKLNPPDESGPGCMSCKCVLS
Chain of GDP-bound KRAS wild-type protein (P01116 1-188 isoform P01116-2): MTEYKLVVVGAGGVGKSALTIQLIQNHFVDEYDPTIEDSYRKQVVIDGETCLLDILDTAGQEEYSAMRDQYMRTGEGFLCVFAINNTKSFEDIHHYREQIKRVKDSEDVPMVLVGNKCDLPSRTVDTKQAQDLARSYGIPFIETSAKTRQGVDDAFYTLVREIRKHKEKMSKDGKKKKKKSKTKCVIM
Chain of GDP-bound NRAS wild-type protein (P01111 whole entry): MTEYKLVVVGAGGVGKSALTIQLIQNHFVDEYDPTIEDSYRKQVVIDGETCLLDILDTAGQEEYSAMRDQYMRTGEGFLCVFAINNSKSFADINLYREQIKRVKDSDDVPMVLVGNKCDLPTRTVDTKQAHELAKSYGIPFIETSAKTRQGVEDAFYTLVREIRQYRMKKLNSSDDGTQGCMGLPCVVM

Kd [1] [nM]	IC50 [3] [nM]	IC50 [4] [nM]	IC50 [5] [nM]	IC50 [6] [nM]	IC50 [7] [nM]	IC50 [8] [nM]	IC50 [9] [nM]	Structure (SMILES)	NRAS /KRAS [2]	HRAS /KRAS (HRAS wild-type protein)
0.022	1.9	2.1	4.2	1.5	0.6	2.1	1.5	C#CC[C@H]1C(=O)N[C@@H]([C@@H](C)CC)C(=O)N(C)CC(=O)N(C)[C@H]2C/C=C\CCN(C2=O)[C@@H](Cc2ccc(C)cc2)C(=O)N(C)CC(=O)N[C@@H](CCc2cc(F)c(C(F)(F)F)c(F)c2)C(=O)N2C[C@H](OCC)C[C@H]2C(=O)N(C)C2(CCC2)C(=O)N(C)[C@@H](C2CCCC2)C(=O)N(C)[C@H](C(=O)N(C)C)CC(=O)N1C [PP3238, (2S,8S,12R,14S,20S,23S,27S,30S,36S,38Z)-20-cyclopentyl-8-[2-[3,5-difluoro-4-(trifluoromethyl)phenyl]ethyl]-12-ethoxy-N,N,4,16,19,22,26,32,35-nonamethyl-30-[(1S)-1-methylpropyl]-3,6,9,15,18,21,25,28,31,34,42-undecaoxo-27-prop-2-ynyl-2-(p-tolylmethyl)spiro[1,4,7,10,16,19,22,26,29,32,35-undecazatricyclo[34.5.1.0^10,14]dotetracont-38-ene-17,1'-cyclobutane]-23-carboxamide]	A (a compound having 10 or more and less than 20 is denoted as A)	A (a compound having 10 or more and less than 20 is denoted as A)
0.026	1.6	2	3.2	1.1	0.4	2.2	0.7	C#CC[C@H]1C(=O)N[C@@H]([C@@H](C)CC)C(=O)N(C)CC(=O)N(C)[C@H]2C/C=C\CCN(C2=O)[C@@H](Cc2ccc(C(F)(F)F)cc2)C(=O)N(C)CC(=O)N[C@@H](CCc2ccc(C(F)(F)F)c(Cl)c2)C(=O)N2C[C@H](OCC)C[C@H]2C(=O)N(C)C2(CCC2)C(=O)N(C)[C@@H](C2CCCC2)C(=O)N(C)[C@H](C(=O)N(C)C)CC(=O)N1C [PP3234, (2S,8S,12R,14S,20S,23S,27S,30S,36S,38Z)-8-[2-[3-chloro-4-(trifluoromethyl)phenyl]ethyl]-20-cyclopentyl-12-ethoxy-N,N,4,16,19,22,26,32,35-nonamethyl-30-[(1S)-1-methylpropyl]-3,6,9,15,18,21,25,28,31,34,42-undecaoxo-27-prop-2-ynyl-2-[[4-(trifluoromethyl)phenyl]methyl]spiro[1,4,7,10,16,19,22,26,29,32,35-undecazatricyclo[34.5.1.0^10,14]dotetracont-38-ene-17,1'-cyclobutane]-23-carboxamide]	A (a compound having 10 or more and less than 20 is denoted as A)	B (a compound having 3 or more and less than 10 is denoted as B)
0.12	13.6	8.2	25.5	9.1	2.1	24.8	8.7	CCO[C@@H]1C[C@H]2C(=O)NC3(CCCC3)C(=O)N(C)[C@@H](C3CCCC3)C(=O)N(C)[C@H](C(=O)N(C)C)CC(=O)N(C)[C@@H]([C@@H](C)OC)C(=O)N[C@@H]([C@@H](C)CC)C(=O)N(C)CC(=O)N(C)[C@H]3C/C=C\CCN(C3=O)[C@@H](Cc3ccc(C)cc3)C(=O)N(C)CC(=O)N[C@@H](CCc3cc(F)c(C(F)(F)F)c(F)c3)C(=O)N2C1 [PP3481, (2S,8S,12R,14S,20S,23S,27S,30S,36S,38Z)-20-cyclopentyl-8-[2-[3,5-difluoro-4-(trifluoromethyl)phenyl]ethyl]-12-ethoxy-27-[(1R)-1-methoxyethyl]-N,N,4,19,22,26,32,35-octamethyl-30-[(1S)-1-methylpropyl]-3,6,9,15,18,21,25,28,31,34,42-undecaoxo-2-(p-tolylmethyl)spiro[1,4,7,10,16,19,22,26,29,32,35-undecazatricyclo[34.5.1.0^10,14]dotetracont-38-ene-17,1'-cyclopentane]-23-carboxamide]	A (a compound having 10 or more and less than 20 is denoted as A)	A (a compound having 10 or more and less than 20 is denoted as A)
